Results published in patent publication US12528816B2, “Substituted imidazo [1,2-b] pyridazines and [1, 2, 4] triazolo [ 4,3-b] pyridazines as camkii inhibitors” (Cardurion Pharmaceuticals, INC., priority 2020, dated 2026).

These compounds were tested against T1, human CaMKIIδ (Homo sapiens, UniProt Q13557) (assay: Evaluation of in vitro CaMKII inhibitory activity (binding assay, TR-FRET)). Conditions: human CaMKIIδ, TR-FRET binding assay; class symbols A/B/C; read-out: Act (CaMKII inhibitory activity, binding assay).
T1 construct: Full-length, glutathione-S-transferase(GST)-tagged, human CaMKIIδ was purchased from Carna Biosciences; purchased Carna Biosciences (CaMKIIδ); Wako Pure Chemical Industries (calmodulin) 02-111
Method: Evaluation of In Vitro CaMKII Inhibitory Activity (Binding Assay)
In vitro CaMKIIδ inhibitory activity was evaluated by a binding assay.
Full-length bovine calmodulin was purchased from Wako Pure Chemical Industries (Osaka, Japan). Terbium-labeled anti-GST anti body (Tb-anti-GST Ab) was purchased from Life Technologies (Carlsbad, CA, USA). Fluorescent probe ligand, 5,5-difluoro-7,9-dimethyl-3-(3-oxo-3-((3-((4-(3-(piperazin-1-yl)phenyl)pyrimidin-2-yl)amino)phenyl)amino) propyl)-5H-dipyrrolo[1,2-c:2′,1′-f]
Time-resolved fluorescence resonance energy transfer (TR-FRET) assay
The fluorescent probe ligand, 5,5-difluoro-7,9-dimethyl-3-(3-oxo-3-((3-((4-(3-(piperazin-1-yl)phenyl)pyrimidin-2-yl)amino)phenyl)amino) propyl)-5H-dipyrrolo[1,2-c:2′,1′-f] […] After shaded incubation of the protein-probe mixture on ice for 30 min, the premix was dispensed in the assay plate including test inhibitors with 4 fold dilution series of eight concentrations. After 1 hr incubation at room temperature, TR-FRET signals were measured in duplicate using an EnVision microplate reader (Perkin Elmer, Waltham, MA, USA).
The half maximal inhibitory concentration (IC50) of test compounds was calculated by fitting the data with the logistic equation using XLfit (IDBS, Guildford, UK).

`C[C@@H](Cn1cnnn1)Oc1cccc(-c2ccc3ncn(-c4cc(F)cc(O)c4C#N)c3n2)n1` [Example 472, 4-fluoro-2-hydroxy-6-[5-(6-{[(2S)-1-(1H-tetrazol-1-yl)propan-2-yl]oxy}pyridin-2-yl)-3H-imidazo[4,5-b]pyridin-3-yl]benzonitrile] and `[2H]C([2H])([2H])Oc1cc(F)cc(-n2cnc3ccc(-c4cccc(O[C@@H](C)Cn5cnnn5)n4)nc32)c1C#N` [Example 474, 4-fluoro-2-(methoxy-d3)-6-[5-(6-{[(2S)-1-(1H-tetrazol-1-yl)propan-2-yl]oxy}pyridin-2-yl)-3H-imidazo[4,5-b]pyridin-3-yl]benzonitrile] cannot be ordered by IC50: < 10 nM for the first, < 10 nM for the second.

`[2H]C([2H])([2H])Oc1ccnc(-c2cnc3ccc(-c4ccc(F)c(O[C@@H](C)Cn5cnnn5)c4)nn23)c1C#N` [Example 473, 2-[6-(4-fluoro-3-{[(2S)-1-(1H-tetrazol-1-yl)propan-2-yl]oxy}phenyl)imidazo[1,2-b]pyridazin-3-yl]-4-(methoxy-d3)pyridine-3-carbonitrile] and `COc1ccnc(-c2cnc3ccc(-c4ccc(F)c(O[C@@H](CO)Cn5cnnn5)c4)nn23)c1C#N` [Example 477, 2-[6-(4-fluoro-3-{[(2R)-1-hydroxy-3-(1H-tetrazol-1-yl)propan-2-yl]oxy}phenyl)imidazo[1,2-b]pyridazin-3-yl]-4-methoxypyridine-3-carbonitrile] cannot be ordered by IC50: < 10 nM for the first, < 10 nM for the second.

In the case of `COc1ccnc(-c2cnc3ccc(-c4ccc(F)c(O[C@@H](CF)Cn5cnnn5)c4)nn23)c1C#N` [Example 475, 2-[6-(4-fluoro-3-{[(2R)-1-fluoro-3-(1H-tetrazol-1-yl)propan-2-yl]oxy}phenyl)imidazo[1,2-b]pyridazin-3-yl]-4-methoxypyridine-3-carbonitrile], the IC50 is reported as < 10 nM.

Same assay, conditions: in vitro CaMKII inhibitory activity (binding assay), human CaMKIIδ; read-out: Act

Compared with `C[C@@H](Cn1cnnn1)Oc1cc(-c2ccc3ncn(-c4cc(F)ccc4C#N)c3n2)cnn1` [Example 347, 4-fluoro-2-[5-(6-{[(2S)-1-(1H-tetrazol-1-yl)propan-2-yl]oxy}pyridazin-4-yl)-3H-imidazo[4,5-b]pyridin-3-yl]benzonitrile], `C[C@@H](Cn1cnnn1)Oc1cccc(-c2ccc3ncn(-c4cc(C(F)F)ccc4C#N)c3n2)c1` [Example 383, 4-(difluoromethyl)-2-[5-(3-{[(2S)-1-(1H-tetrazol-1-yl)propan-2-yl]oxy}phenyl)-3H-imidazo[4,5-b]pyridin-3-yl]benzonitrile] is lower in IC50: 10 to 100 nM for the first, < 10 nM for the second. The second is the more potent here.

`C[C@@H](Cn1cnnn1)Oc1cccc(-c2ccc3ncc(-c4nccc(OCC(F)F)c4C#N)n3n2)c1` [Example 354, 4-(2,2-difluoroethoxy)-2-[6-(3-{[(2S)-1-(1H-tetrazol-1-yl)propan-2-yl]oxy}phenyl)imidazo[1,2-b]pyridazin-3-yl]pyridine-3-carbonitrile] and `C[C@@H](Cn1cnnn1)Oc1cccc(-c2ccc3ncc(-c4nccc(OCF)c4C#N)n3n2)c1` [Example 466, 4-(fluoromethoxy)-2-[6-(3-{[(2S)-1-(1H-tetrazol-1-yl)propan-2-yl]oxy}phenyl)imidazo[1,2-b]pyridazin-3-yl]pyridine-3-carbonitrile] cannot be ordered by IC50: < 10 nM for the first, < 10 nM for the second.

`CNc1ccnc(-c2cnc3ccc(-c4cccc(O[C@@H](C)Cn5cnnn5)c4)nn23)c1C#N` [Example 358, 4-(methylamino)-2-[6-(3-{[(2S)-1-(1H-tetrazol-1-yl)propan-2-yl]oxy}phenyl)imidazo[1,2-b]pyridazin-3-yl]pyridine-3-carbonitrile] and `C[C@@H](Cn1cnnn1)Oc1cccc(-c2ccc3ncc(-c4nc(F)ccc4C#N)n3n2)c1` [Example 467, 6-fluoro-2-[6-(3-{[(2S)-1-(1H-tetrazol-1-yl)propan-2-yl]oxy}phenyl)imidazo[1,2-b]pyridazin-3-yl]pyridine-3-carbonitrile] cannot be ordered by IC50: < 10 nM for the first, < 10 nM for the second.

`C[C@@H](Cn1cnnn1)Oc1cccc(-c2ccn3nc(F)c(-c4cc(F)ccc4C#N)c3n2)c1` [Example 379, 4-fluoro-2-[2-fluoro-5-(3-{[(2S)-1-(1H-tetrazol-1-yl)propan-2-yl]oxy}phenyl)pyrazolo[1,5-a]pyrimidin-3-yl]benzonitrile] and `C[C@@H](Cn1cnnn1)Oc1cccc(-c2ccn3ncc(-c4cc(F)ccc4C#N)c3n2)n1` [Example 416, 4-fluoro-2-[5-(6-{[(2S)-1-(1H-tetrazol-1-yl)propan-2-yl]oxy}pyridin-2-yl)pyrazolo[1,5-a]pyrimidin-3-yl]benzonitrile] cannot be ordered by IC50: < 10 nM for the first, < 10 nM for the second.

`COc1cc(F)cc(-c2cnc3ccc(-c4cncc(O[C@@H](C)Cn5cnnn5)n4)nn23)c1C#N` [Example 392, 4-fluoro-2-methoxy-6-[6-(6-{[(2S)-1-(1H-tetrazol-1-yl)propan-2-yl]oxy}pyrazin-2-yl)imidazo[1,2-b]pyridazin-3-yl]benzonitrile] and `COc1cc(F)cc(-c2cnc3ccc(-c4cccc(O[C@@H](C)Cn5cnnn5)n4)nn23)c1C#N` [Example 410, 4-fluoro-2-methoxy-6-[6-(6-{[(2S)-1-(1H-tetrazol-1-yl)propan-2-yl]oxy}pyridin-2-yl)imidazo[1,2-b]pyridazin-3-yl]benzonitrile] cannot be ordered by IC50: < 10 nM for the first, < 10 nM for the second.

`COc1cc(F)cc(-n2cnc3ccc(-c4cccc(O[C@@H](C)Cn5cnnn5)n4)nc32)c1C#N` [Example 393, 4-fluoro-2-methoxy-6-[5-(6-{[(2S)-1-(1H-tetrazol-1-yl)propan-2-yl]oxy}pyridin-2-yl)-3H-imidazo[4,5-b]pyridin-3-yl]benzonitrile] and `COc1cc(Cl)cc(-n2cnc3ccc(-c4cncc(O[C@@H](C)Cn5cnnn5)n4)nc32)c1C#N` [Example 448, 4-chloro-2-methoxy-6-[5-(6-{[(2S)-1-(1H-tetrazol-1-yl)propan-2-yl]oxy}pyrazin-2-yl)-3H-imidazo[4,5-b]pyridin-3-yl]benzonitrile] cannot be ordered by IC50: < 10 nM for the first, < 10 nM for the second.

`COc1nccc(-c2cnc3ccc(-c4ccc(F)c(O[C@@H](C)Cn5cnnn5)c4)nn23)c1C#N` [Example 399, 4-[6-(4-fluoro-3-{[(2S)-1-(1H-tetrazol-1-yl)propan-2-yl]oxy}phenyl)imidazo[1,2-b]pyridazin-3-yl]-2-methoxypyridine-3-carbonitrile] and `C[C@@H](Cn1cnnn1)Oc1cc(-c2ccc3ncc(-c4nccc(OCF)c4C#N)n3n2)ccc1F` [Example 435, 2-[6-(4-fluoro-3-{[(2S)-1-(1H-tetrazol-1-yl)propan-2-yl]oxy}phenyl)imidazo[1,2-b]pyridazin-3-yl]-4-(fluoromethoxy)pyridine-3-carbonitrile] cannot be ordered by IC50: < 10 nM for the first, < 10 nM for the second.

`C[C@@H](Cn1cnnn1)Oc1cccc(-c2ccc3ncc(-c4cc(F)cc(OC(F)F)c4C#N)n3n2)n1` [Example 409, 2-(difluoromethoxy)-4-fluoro-6-[6-(6-{[(2S)-1-(1H-tetrazol-1-yl)propan-2-yl]oxy}pyridin-2-yl)imidazo[1,2-b]pyridazin-3-yl]benzonitrile] and `C[C@@H](Cn1cnnn1)Oc1cccc(-c2ccc3ncc(-c4cc(F)cc(C(F)F)c4C#N)n3n2)n1` [Example 417, 2-(difluoromethyl)-4-fluoro-6-[6-(6-{[(2S)-1-(1H-tetrazol-1-yl)propan-2-yl]oxy}pyridin-2-yl)imidazo[1,2-b]pyridazin-3-yl]benzonitrile] cannot be ordered by IC50: < 10 nM for the first, < 10 nM for the second.

`C[C@@H](Cn1cnnn1)Oc1cccc(-c2ccc3ncc(-c4cccc(OC(F)F)c4C#N)n3n2)c1` [Example 412, 2-(difluoromethoxy)-6-[6-(3-{[(2S)-1-(1H-tetrazol-1-yl)propan-2-yl]oxy}phenyl)imidazo[1,2-b]pyridazin-3-yl]benzonitrile] and `C[C@@H](Cn1cnnn1)Oc1cccc(-c2ccc3ncc(-c4cccc(C(F)F)c4C#N)n3n2)c1` [Example 413, 2-(difluoromethyl)-6-[6-(3-{[(2S)-1-(1H-tetrazol-1-yl)propan-2-yl]oxy}phenyl)imidazo[1,2-b]pyridazin-3-yl]benzonitrile] cannot be ordered by IC50: < 10 nM for the first, < 10 nM for the second.

`CC(=O)c1cccc(-c2cnc3ccc(-c4cccc(O[C@@H](C)Cn5cnnn5)c4)nn23)c1C#N` [Example 426, 2-acetyl-6-[6-(3-{[(2S)-1-(1H-tetrazol-1-yl)propan-2-yl]oxy}phenyl)imidazo[1,2-b]pyridazin-3-yl]benzonitrile] and `C[C@@H](Cn1cnnn1)Oc1cccc(-c2ccc3ncc(-c4cccc(C(C)(F)F)c4C#N)n3n2)c1` [Example 427, 2-(1,1-difluoroethyl)-6-[6-(3-{[(2S)-1-(1H-tetrazol-1-yl)propan-2-yl]oxy}phenyl)imidazo[1,2-b]pyridazin-3-yl]benzonitrile] cannot be ordered by IC50: < 10 nM for the first, < 10 nM for the second.

`COc1cc(F)cc(-c2cnc3ccc(-c4ccc(F)c(O[C@@H](C)Cn5cnnn5)n4)nn23)c1C#N` [Example 447, 4-fluoro-2-[6-(5-fluoro-6-{[(2S)-1-(1H-tetrazol-1-yl)propan-2-yl]oxy}pyridin-2-yl)imidazo[1,2-b]pyridazin-3-yl]-6-methoxybenzonitrile] and `COc1cc(F)cc(-c2cnc3ccc(-c4cccc(O[C@@H](C)Cn5cncn5)n4)nn23)c1C#N` [Example 452, 4-fluoro-2-methoxy-6-[6-(6-{[(2S)-1-(1H-1,2,4-triazol-1-yl)propan-2-yl]oxy}pyridin-2-yl)imidazo[1,2-b]pyridazin-3-yl]benzonitrile] cannot be ordered by IC50: < 10 nM for the first, < 10 nM for the second.
